Measured values as given in US20170121315A1, “HETEROBICYCLICALLY SUBSTITUTED 4-OXOBUTANE ACID DERIVATIVES AND USE THEREOF” (priority 2014, published 2017).

Assays:
Format in all cases: biochemical
[1] = molecular target: T1, human macrophage elastase (HME/hMMP-12) (Homo sapiens, UniProt P39900); assay: In vitro HME inhibition test (standard or high-sensitivity); conditions: in some cases mean values, rounded to two significant figures
T1 construct: purchased R&D Systems 917-MP
Procedure, shortened: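 Autoactivated HME (0.5 nM; high-sensitivity format 0.05 nM, ~16 h) with 5 μM quenched Mca-PLGLEEA-Dap(Dnp)-NH2 substrate in HEPES pH 7.4, NaCl, CaCl2, ZnCl2, EDTA, Brij buffer, 2 h at 37° C. Fluorescence at ex 323/em 393 nm; IC50 from signal versus concentration.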

MMP-3 = molecular target: T2, MMP-3 (Homo sapiens, UniProt P08254); assay: In vitro MMP-3 inhibition test; conditions: human MMP-3
T2 construct: purchased R&D Systems 513-MP
T2 sequence (P08254 100-477): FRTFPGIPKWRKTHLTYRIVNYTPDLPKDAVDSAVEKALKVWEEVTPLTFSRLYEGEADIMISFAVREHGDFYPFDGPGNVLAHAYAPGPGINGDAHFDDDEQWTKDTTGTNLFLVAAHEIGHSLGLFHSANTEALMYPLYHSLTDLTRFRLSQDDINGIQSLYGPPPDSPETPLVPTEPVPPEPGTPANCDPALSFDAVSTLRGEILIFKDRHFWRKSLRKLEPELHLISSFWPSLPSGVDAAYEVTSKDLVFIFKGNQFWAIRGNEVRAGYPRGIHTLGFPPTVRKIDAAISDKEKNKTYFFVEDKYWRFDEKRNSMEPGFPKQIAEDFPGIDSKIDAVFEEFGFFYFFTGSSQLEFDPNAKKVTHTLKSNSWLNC
Excerpt: (§1) The MMP-mediated amidolytic cleavage of a suitable peptide substrate leads to an increase in fluorescent light here too. The signal intensity of the fluorescent light is directly proportional to the enzyme activity. The active concentration of a test compound at which half the enzyme is inhibited (50% signal intensity of the fluorescent light) is reported as the IC50 value.
(§2) Recombinant MMP-3 (R&D Systems, 513-MP) is chemically activated in accordance with the manufacturer's instructions using APMA. 1 μl of the test compound to be analysed (as a solution in DMSO, suitable concentrations e.g. 1 nM to 30 μM) is pipetted into 24 μl of activated enzyme (final concentration e.g. 2 nM) in reaction buffer (50 mM Tris/HCl pH 7.5, 10 mM CaCl2, 150 mM NaCl, 0.05% Brij®-35) in a white 384-hole microtiter plate (MTP). The enzymatic reaction is started by adding the intramolecularly quenched Mca-Arg-Pro-Lys-Pro-Val-Glu-Nval-Trp-Arg-Lys(Dnp)-NH2 substrate (final concentration e.g. 10 μM; R&D Systems, ES-002), so as to result in a total test volume of 50 μl. The course of the MMP-3 reaction is measured by measuring the fluorescence intensity (excitation 320 nm, emission 410 nm) over a suitable period of time (e.g. over 120 min at a temperature of 32° C.).

MMP-8 = molecular target: T3, MMP-8 (Homo sapiens, UniProt P22894); assay: In vitro MMP-8 inhibition test; conditions: human MMP-8
T3 construct: purchased R&D Systems 908-MP
T3 sequence (P22894 101-467): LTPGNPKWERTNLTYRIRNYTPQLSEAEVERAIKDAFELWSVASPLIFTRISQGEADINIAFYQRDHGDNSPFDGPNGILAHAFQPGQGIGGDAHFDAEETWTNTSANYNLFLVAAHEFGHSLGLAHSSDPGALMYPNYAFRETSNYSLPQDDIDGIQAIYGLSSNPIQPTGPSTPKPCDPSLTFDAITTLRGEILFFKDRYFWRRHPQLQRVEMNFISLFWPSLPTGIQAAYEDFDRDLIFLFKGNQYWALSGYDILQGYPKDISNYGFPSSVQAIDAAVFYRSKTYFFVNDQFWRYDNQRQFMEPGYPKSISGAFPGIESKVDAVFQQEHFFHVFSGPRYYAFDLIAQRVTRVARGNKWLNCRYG
Excerpt: as §1
as §2, with “Recombinant MMP-8” for “Recombinant MMP-3”, “Systems, 908-MP)” for “Systems, 513-MP)”, “e.g. 0.5” for “e.g. 2”, “quenched Mca-Pro-Leu-Gly-Leu-Dpa(Dnp)-Ala-Arg-NH2” for “quenched Mca-Arg-Pro-Lys-Pro-Val-Glu-Nval-Trp-Arg-Lys(Dnp)-NH2”, “Systems, ES-001),” for “Systems, ES-002),”, “the MMP-8” for “the MMP-3”

MMP-10 = molecular target: T4, MMP-10 (Homo sapiens, UniProt P09238); assay: In vitro MMP-10 inhibition test; conditions: human MMP-10
T4 construct: purchased R&D Systems 910-MP
T4 sequence (P09238 99-476): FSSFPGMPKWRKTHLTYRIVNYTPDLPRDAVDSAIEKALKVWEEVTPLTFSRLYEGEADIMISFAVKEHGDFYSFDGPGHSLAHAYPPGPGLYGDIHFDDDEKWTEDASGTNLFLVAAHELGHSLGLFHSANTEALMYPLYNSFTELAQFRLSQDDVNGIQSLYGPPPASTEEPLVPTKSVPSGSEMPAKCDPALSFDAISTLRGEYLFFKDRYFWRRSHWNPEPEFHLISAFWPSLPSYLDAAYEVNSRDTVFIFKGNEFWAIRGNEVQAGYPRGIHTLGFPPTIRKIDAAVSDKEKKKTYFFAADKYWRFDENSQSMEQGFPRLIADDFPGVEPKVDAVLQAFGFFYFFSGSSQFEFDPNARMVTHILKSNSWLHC
Excerpt: as §1
as §2, with “MMP-10” for “MMP-3”, “910-MP)” for “513-MP)”

MMP-16 = molecular target: T5, MMP-16 (Homo sapiens, UniProt P51512); assay: In vitro MMP-16 inhibition test; conditions: human MMP-16
T5 construct: purchased R&D Systems 1785-MP
T5 sequence (P51512 120-564 limits assumed): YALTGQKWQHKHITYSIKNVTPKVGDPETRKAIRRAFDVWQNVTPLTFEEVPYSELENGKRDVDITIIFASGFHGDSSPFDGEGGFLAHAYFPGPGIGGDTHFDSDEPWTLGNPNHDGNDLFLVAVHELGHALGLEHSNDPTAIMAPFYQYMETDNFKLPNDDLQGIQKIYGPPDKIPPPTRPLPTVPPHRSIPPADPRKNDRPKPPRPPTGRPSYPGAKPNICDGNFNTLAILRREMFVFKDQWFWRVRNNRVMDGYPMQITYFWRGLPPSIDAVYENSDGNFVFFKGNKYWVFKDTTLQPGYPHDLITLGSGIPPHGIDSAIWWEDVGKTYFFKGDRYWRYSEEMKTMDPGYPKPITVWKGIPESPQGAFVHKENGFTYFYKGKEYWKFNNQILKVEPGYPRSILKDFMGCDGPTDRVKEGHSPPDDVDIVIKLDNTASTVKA
Excerpt: as §1
Recombinant MMP-16 (R&D Systems, 1785-MP) is enzymatically activated in accordance with the manufacturer's instructions using recombinant furin (R&D Systems, 1503-SE). 1 μl of the test compound to be analysed (as a solution in DMSO, suitable concentrations e.g. 1 nM to 30 μM) is pipetted into 24 μl of activated enzyme (final concentration e.g. 1 nM) in reaction buffer (50 mM Tris/HCl pH 7.5, 10 mM CaCl2, 150 mM NaCl, 0.05% Brij®-35) in a white 384-hole microtiter plate (MTP). The enzymatic reaction is started by adding the intramolecularly quenched Mca-Lys-Pro-Leu-Gly-Leu-Dpa(Dnp)-Ala-Arg-NH2 substrate (final concentration e.g. 5 μM; R&D Systems, ES-010), so as to result in a total test volume of 50 μl. The course of the MMP-16 reaction is measured by measuring the fluorescence intensity (excitation 320 nm, emission 410 nm) over a suitable period of time (e.g. over 120 min at a temperature of 32° C.).

T1 sequence (P39900 106-470): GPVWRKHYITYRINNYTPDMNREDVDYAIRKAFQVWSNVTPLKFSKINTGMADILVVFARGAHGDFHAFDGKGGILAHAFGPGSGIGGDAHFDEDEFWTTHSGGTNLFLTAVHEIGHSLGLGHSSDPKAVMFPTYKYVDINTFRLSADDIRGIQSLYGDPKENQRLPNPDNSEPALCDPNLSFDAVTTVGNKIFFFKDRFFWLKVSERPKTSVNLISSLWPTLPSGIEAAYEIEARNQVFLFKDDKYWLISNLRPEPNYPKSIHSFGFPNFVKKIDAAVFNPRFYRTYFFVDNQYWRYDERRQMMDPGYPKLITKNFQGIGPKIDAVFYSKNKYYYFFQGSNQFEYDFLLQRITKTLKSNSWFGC

Row | Structure (SMILES) | IC50 [1] [nM] | IC50 (MMP-3) [µM] | IC50 (MMP-8) [nM] | IC50 (MMP-10) [µM] | IC50 (MMP-16) [µM]
1 | O=C(CC(CCn1nnc2ccccc2c1=O)C(=O)O)c1cc2cc(OCCCC(F)(F)F)ccc2o1 (single isomer, unassigned; enantiomer 2) [Example 13, (+)-4-Oxo-2-[2-(4-oxo-1,2,3-benzotriazin-3(4H)-yl)ethyl]-4-[5-(4,4,4-trifluorobutoxy)-1-benzofur-2-yl]butanoic acid (enantiomer 2)] | 6.1 | > 40 | 5000 | 15 | > 40
2 | O=C(CC(CCn1nnc2ccc(C(F)(F)F)cc2c1=O)C(=O)O)c1noc2cc(OCC3CCOCC3)ccc12 (racemic) [Example 155, (+/−)-4-Oxo-2-{2-[4-oxo-6-(trifluoromethyl)-1,2,3-benzotriazin-3(4H)-yl]ethyl}-4-[6-(tetrahydro-2H-pyran-4-ylmethoxy)-1,2-benzoxazol-3-yl]butanoic acid] | 0.39 | 19 | 82 | 5.1 | 30
3 | O=C(C[C@H](CCn1nnc2ccccc2c1=O)C(=O)O)c1noc2cc(OCC3CCOCC3)ccc12 (single isomer, unassigned; enantiomer 2) [Example 135] | 0.16 | 12 | 170 | 9 | 36
4 | O=C(CC(CCn1nnc2ccccc2c1=O)C(=O)O)c1cc2ccc(OCCCC3CCCCC3)cc2o1 (racemic) [Example 71, (+/−)-4-[6-(3-Cyclohexylpropoxy)-1-benzofur-2-yl]-4-oxo-2-[2-(4-oxo-1,2,3-benzotriazin-3(4H)-yl)ethyl]butanoic acid] | 2.2 | > 40 | > 40000 | > 40 | > 40
5 | O=C(CC(CCn1nnc2ccccc2c1=O)C(=O)O)c1onc2cc(OCc3ccccc3)ccc12 (racemic) [Example 156, (+/−)-4-[6-(Benzyloxy)-2,1-benzoxazol-3-yl]-4-oxo-2-[2-(4-oxo-1,2,3-benzotriazin-3(4H)-yl)ethyl]butanoic acid] | 2.4 | 13 | 2800 | 28 | 38
6 | O=C(CC(CCn1nnc2ccccc2c1=O)C(=O)O)c1cc2cc(OCCc3ccc(Cl)cc3)ccc2o1 (racemic) [Example 2, (+/−)-4-{5-[2-(4-Chlorophenyl)ethoxy]-1-benzofur-2-yl}-4-oxo-2-[2-(4-oxo-1,2,3-benzotriazin-3(4H)-yl)ethyl]butanoic acid] | 2.6 | 25 | 14000 | 16 | > 40
7 | CCCCCOc1ccc2c(C(=O)CC(CCn3nnc4ccccc4c3=O)C(=O)O)noc2c1 (racemic) [Example 140, (+/−)-4-Oxo-2-[2-(4-oxo-1,2,3-benzotriazin-3(4H)-yl)ethyl]-4-[6-(pentyloxy)-1,2-benzoxazol-3-yl]butanoic acid] | 0.28 | 14 | 570 | 6.3 | 24
8 | O=C(O)[C@H]1[C@H](Cn2nnc3ccc(C(F)(F)F)cc3c2=O)CC[C@@H]1C(=O)c1cc2cc(OCCc3ccccc3)ccc2o1 (racemic) [Example 157, (+/−)-(1RS,2SR,5RS)-2-{[4-Oxo-6-(trifluoromethyl)-1,2,3-benzotriazin-3(4H)-yl]methyl}-5-{[5-(2-phenylethoxy)-1-benzofur-2-yl]carbonyl}cyclopentanecarboxylic acid (racemate)] | 0.055 | 1.1 | 150 | 0.19 | 4.9
9 | O=C(CC(CCn1nnc2ccccc2c1=O)C(=O)O)c1cc2cc(OCC3CCCCC3)ccc2o1 (racemic) [Example 8, (+/−)-4-[5-(Cyclohexylmethoxy)-1-benzofur-2-yl]-4-oxo-2-[2-(4-oxo-1,2,3-benzotriazin-3(4H)-yl)ethyl]butanoic acid] | 2 | > 40 | 30000 | > 40 | > 40
10 | O=C(CC(CCn1nnc2ccccc2c1=O)C(=O)O)c1cc2ccc(OCC3CC3)cc2s1 (single isomer, unassigned; (+)) [Example 112, (+)-4-[6-(Cyclopropylmethoxy)-1-benzothiophen-2-yl]-4-oxo-2-[2-(4-oxo-1,2,3-benzotriazin-3(4H)-yl)ethyl]butanoic acid] | 2.2 | 6.4 | 240 | 2.5 | 37
11 | O=C(CC(CCn1nnc2ccccc2c1=O)C(=O)O)c1cc2cc(OCCc3ccccc3Cl)ccc2o1 (racemic) [Example 1, (+/−)-4-{5-[2-(2-Chlorophenyl)ethoxy]-1-benzofur-2-yl}-4-oxo-2-[2-(4-oxo-1,2,3-benzotriazin-3(4H)-yl)ethyl]butanoic acid] | 2.6 | > 40 | > 40000 | 28 | > 40
12 | CCCCCOc1ccc2cc(C(=O)CC(CCn3nnc4ccccc4c3=O)C(=O)O)sc2c1 (racemic) [Example 118, (+/−)-4-Oxo-2-[2-(4-oxo-1,2,3-benzotriazin-3(4H)-yl)ethyl]-4-[6-(pentyloxy)-1-benzothiophen-2-yl]butanoic acid] | 2.7 | 16 | 9300 | 10 | > 40
13 | O=C(CC(CCn1nnc2ccccc2c1=O)C(=O)O)c1coc2cc(OCC3CCCC3)ccc12 (single isomer, unassigned; (+)) [Example 80, (+)-4-[6-(Cyclopentylmethoxy)-1-benzofur-3-yl]-4-oxo-2-[2-(4-oxo-1,2,3-benzotriazin-3(4H)-yl)ethyl]butanoic acid] | 0.46 | 5.7 | 440 | 12 | 21
14 | O=C(CC(CCn1nnc2ccccc2c1=O)C(=O)O)c1cc2cc(OCc3ccc(F)cc3)ccc2o1 (single isomer, unassigned; (+)) [Example 23, (+)-4-{5-[(4-Fluorobenzyl)oxy]-1-benzofur-2-yl}-4-oxo-2-[2-(4-oxo-1,2,3-benzotriazin-3(4H)-yl)ethyl]butanoic acid] | 0.81 | > 40 | 6300 | 11 | 30
